Experimental data published in ChEMBL document CHEMBL5038645, “Discovery of Mycobacterium tuberculosis Rv3364c-Derived Small Molecules as Potential Therapeutic Agents to Target SNX9 for Sepsis” (J Med Chem, 2022).

What was measured:
Type in all cases: functional
[1] = Antiinflammatory activity in […] cells assessed as reduction in LPS-induced TNF-alpha release at 10 uM pre incubated for 1 hr followed by LPS stimulation and measured after 30 mins by ELISA
[2] = Antiinflammatory activity in […] cells assessed as reduction in LPS-induced NOX release at 10 uM pre incubated for 1 hr followed by LPS stimulation and measured after 30 mins by ELISA
[3] = Antiinflammatory activity in […] cells assessed as reduction in LPS-induced IL-6 release at 10 uM pre incubated for 1 hr followed by LPS stimulation and measured after 30 mins by ELISA

COc1ccc(-c2nc(NCCOCCOCCN)nc(NCC3CCCO3)n2)cc1 (centres undefined)
inhibition at 10 µM [1]: 10.1% | inhibition at 10 µM [2]: 38.4% | inhibition at 10 µM [3]: 50.1%

Cc1ccc(CNc2nc(NCCOCCOCCN)nc(-c3ccc(C(C)(C)C)cc3)n2)cc1
inhibition at 10 µM [1]: 35.9% | inhibition at 10 µM [2]: 15.3% | inhibition at 10 µM [3]: 33.3%

NCCOCCOCCNc1nc(NCC2CCCO2)nc(-c2ccc(Cl)cc2)n1 (centres undefined)
inhibition at 10 µM [1]: 25.3% | inhibition at 10 µM [2]: 30.7% | inhibition at 10 µM [3]: 33.3%

NCCOCCOCCNc1nc(NCC2CCCO2)nc(-c2ccc(F)cc2)n1 (centres undefined)
inhibition at 10 µM [1]: 15.1% | inhibition at 10 µM [2]: 23% | inhibition at 10 µM [3]: 33.4%

NCCOCCOCCNc1nc(NCC2CCCO2)nc(-c2ccccc2)n1 (centres undefined)
inhibition at 10 µM [1]: 10.6% | inhibition at 10 µM [2]: 30.7% | inhibition at 10 µM [3]: 26.7%

CC(C)(C)c1ccc(-c2nc(NCCOCCN)nc(NCC3CCCO3)n2)cc1 (centres undefined)
inhibition at 10 µM [1]: 13.3% | inhibition at 10 µM [2]: 33.1% | inhibition at 10 µM [3]: 22.1%

CC(C)(C)c1ccc(-c2nc(NCCOCCOCCN)nc(NCc3ccc(F)cc3)n2)cc1
inhibition at 10 µM [1]: 30.1% | inhibition at 10 µM [2]: 46.1% | inhibition at 10 µM [3]: 53.3%

CC(C)(C)c1ccc(-c2nc(NCCOCCOCCN)nc(NCc3ccco3)n2)cc1
inhibition at 10 µM [1]: 15.6% | inhibition at 10 µM [2]: 44.7% | inhibition at 10 µM [3]: 40.1%
